For this experiment, the target named is T1, GLP-1R (Homo sapiens, UniProt P43220).
T1 construct: host or cells: GLP-1R CRE-bla CHO-K1 cells
As to the kind of experiment: EC20 GLP-1(9-36) PAM cAMP assay: dose response of compound in the presence of fixed concentration of GLP-1(9-36). Format: cell-based. The following applies: GLP-1R CRE-bla CHO-K1 cells, read-out: EC20 GLP-1(9-36) PAM EC50. Summed up: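 Positive allosteric modulation read as cAMP accumulation: compound titrations (12 points) combined with an EC20 level of GLP-1(9-36) on CHO-K1 GLP-1R CRE-bla cells, IBMX present, 30 min, 37 °C, pH 7.4 buffer. Luminescence converted to cAMP via standards; non-linear fit gave EC50 and Emax.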

Setting [1] is: compound dose response with fixed concentration of GLP-1(9-36).
The mark [2] stands for this setting: dose response of compound in presence of fixed concentration of GLP-1(9-36).

Read-outs that look alike come from different tables or passages of the source. Some results are limits rather than exact numbers.

T1 sequence (P43220 24-463): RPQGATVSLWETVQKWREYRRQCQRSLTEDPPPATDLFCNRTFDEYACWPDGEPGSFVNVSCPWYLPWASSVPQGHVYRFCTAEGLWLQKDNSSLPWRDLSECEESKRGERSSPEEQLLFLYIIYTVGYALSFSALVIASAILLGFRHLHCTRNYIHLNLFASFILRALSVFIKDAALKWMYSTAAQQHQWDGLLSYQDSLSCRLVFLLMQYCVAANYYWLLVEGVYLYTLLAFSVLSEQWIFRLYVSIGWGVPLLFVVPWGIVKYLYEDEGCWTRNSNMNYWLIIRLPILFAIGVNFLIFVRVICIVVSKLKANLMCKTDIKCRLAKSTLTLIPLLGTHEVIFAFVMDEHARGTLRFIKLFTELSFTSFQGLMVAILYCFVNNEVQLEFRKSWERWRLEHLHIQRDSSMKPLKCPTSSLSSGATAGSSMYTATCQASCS
T1 sequence (P01275 100-127 partner limits assumed): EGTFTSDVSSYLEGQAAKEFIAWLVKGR

Consider `CCCCCc1ccc(-c2ccc(-c3cnc(-c4ccc(C[C@H](NC(=O)c5ccc(C(C)(C)C)s5)C(=O)N[C@H](C)C(=O)O)cc4)nc3)cc2)cc1` [Compound 1308], for which the EC50 under setting [1] fell in the range of 800 to 2500 nM.
For `CCCCCCCOc1ccc(-c2cnc(-c3ccc(C[C@H](NC(=O)c4ccc(C(C)(C)C)cc4)C(=O)N4CCC(O)C(C(=O)O)C4)cc3)nc2)cc1` (stereo partly shown) [Compound 661], the EC50 under setting [2] is under 800 nM.
On to `CC(C)(C)c1ccc(C(=O)N[C@@H](Cc2ccc(-c3ncc(-c4ccc(-c5ccc(OC(F)(F)F)cc5)cc4F)cn3)cc2)C(=O)O)s1` [Compound 1365], for which the EC50 under setting [1] was under 800 nM.
For the compound `Cc1cccc(C2CCN(c3cnc(-c4ccc(C[C@H](NC(=O)c5ccc(C(C)(C)C)s5)C(=O)N5CC(C(=O)O)C5)cc4)nc3)CC2)c1` [Compound 1476], under setting [1], the concentration giving a half-maximal response (EC50) was under 800 nM.
Consider `CCCCCCCOc1ccc(-c2cnc(-c3ccc(C[C@H](NC(=O)c4ccc(S(C)(=O)=O)cc4)C(=O)N[C@H](C)C(=O)O)cc3)nc2)cc1` [Compound 816], for which the half-maximal effective concentration (EC50) under setting [2] lay within 800 to 2500 nM.
As for `CC[C@H]1CC[C@H](c2ccc(-c3cnc(-c4ccc(C[C@H](NC(=O)c5ccc(C(C)C)cc5)C(=O)N5CC(C(=O)O)C5)cc4)nc3)cc2)CC1` [Compound 1169], the 50% effective concentration (EC50) under setting [2] is under 800 nM.
In the case of `CCC[C@H]1CC[C@H](N2CCN(c3cnc(-c4ccc(CC(NC(=O)c5ccc(C(C)(C)C)s5)C(=O)N5CC(C(=O)O)C5)cc4)nc3)C(=O)C2)CC1` (stereo partly shown) [Compound 1420], the EC50 under setting [1] is 2500 to 5000 nM.
For `CC(C)(C)c1ccc(C(=O)N[C@@H](Cc2ccc(-c3ncc(-c4ccc(OCC(F)(F)F)cc4)cn3)cc2)C(=O)NC(C(=O)O)C(O)c2ccccc2)s1` (stereo partly shown) [Compound 928], the concentration giving a half-maximal response (EC50) under setting [2] is 2500 to 5000 nM.
As for `C[C@@H](NC(=O)[C@H](Cc1ccc(-c2ncc(-c3ccc(C(F)(F)F)cc3)cn2)cc1)NC(=O)c1ccc(C(C)(C)C)cc1)C(=O)O` [Compound 728], under setting [2], the EC50 is 800 to 2500 nM.
Consider `CCCCCCCOc1ccc(-c2cnc(-c3ccc(C[C@H](NC(=O)c4ccc(O)c(F)c4)C(=O)NC(C(=O)O)C(O)c4ccccc4)cc3)nc2)cc1` (stereo partly shown) [Compound 960], for which the 50% effective concentration (EC50) under setting [2] fell in the range of 800 to 2500 nM.
The same measure, in the same setting: as for `CC(C)CCCCOc1ccc(-c2cnc(-c3ccc(C[C@H](NC(=O)c4ccc(C(C)(C)C)cc4)C(=O)NCCC(=O)O)cc3)nc2)cc1` [Compound 472, (S)-3-(2-(4-(tert-butyl)benzamido)-3-(4-(5-(4-((5-methylhexyl)oxy)phenyl)-pyrimidin-2-yl)phenyl)propanamido)propanoic acid], the figure is 800 to 2500 nM.
On to `CCCCc1ccc(C2CCCN(c3cnc(-c4ccc(C[C@H](NC(=O)c5ccc(C(C)(C)C)s5)C(=O)N5CC(C(=O)O)C5)cc4)nc3)CC2)cc1` (stereo partly shown) [Compound 1508], for which, under setting [1], the 50% effective concentration (EC50) was under 800 nM.
On the same count and under the same terms, the figure for `CCC[C@H]1CC[C@H](C2CCN(c3cnc(-c4ccc(C[C@H](NC(=O)c5ccc(C(C)(C)C)s5)C(=O)N[C@H](C)CC(=O)O)cc4)nc3)CC2)CC1` [Compound 1468] is under 800 nM.
Consider `CCCCc1noc(-c2cnc(-c3ccc(C[C@H](NC(=O)c4ccc(C(C)(C)C)cc4)C(=O)NCCC(=O)O)cc3)nc2)n1` [Compound 743], for which the concentration for a half-maximal effect (EC50) under setting [2] lay within 5000 to 10000 nM.
Consider `CC(C)(C)c1ccc(C(=O)N[C@@H](Cc2ccc(-c3ncc(-c4ccc([C@H]5CC[C@H](C)CC5)cc4)cn3)cc2)C(=O)O)s1` [Compound 1358], for which the concentration for a half-maximal effect (EC50) under setting [1] lay in the range of 2500 to 5000 nM.
`CCCCCCCOc1ccc(-c2cnc(-c3ccc(C[C@H](NC(=O)c4ccc(C(C)(C)C)s4)C(=O)N4CC[C@H](C(=O)O)C4)cc3)nc2)nc1` [Compound 1065]: under setting [2], the EC50 was under 800 nM.
On to `CCCCCCCOc1ccc(-c2cnc(-c3ccc(C[C@H](NC(=O)/C=C/c4ccc(OC)cc4)C(=O)N[C@H](C)C(=O)O)cc3)nc2)cc1` [Compound 1047], for which, under setting [2], the EC50 lay within 2500 to 5000 nM.
Turning to `Cc1cc(-c2ccccc2)ccc1-c1cnc(-c2ccc(C[C@H](NC(=O)c3ccc(C(C)(C)C)s3)C(=O)N[C@H](C)C(=O)O)cc2)nc1` [Compound 1131], the concentration giving a half-maximal response (EC50) under setting [2] was in the range of 800 to 2500 nM.
On to `CC[C@H]1CC[C@H](c2ccc(-c3cnc(-c4ccc(C[C@H](NC(=O)c5ccc(C(C)(C)C)s5)C(=O)N5C6CCC5C(C(=O)O)C6)cc4)nc3)cc2)CC1` (stereo partly shown) [Compound 1321], for which the concentration giving a half-maximal response (EC50) under setting [1] lay within 800 to 2500 nM.
For `C[C@@H](NC(=O)[C@H](Cc1ccc(-c2ncc(-c3ccc(-c4ccc(C(C)(C)C)cc4)cc3)cn2)cc1)NC(=O)c1ccc(C(C)(C)C)s1)C(=O)O` [Compound 1312], under setting [1], the 50% effective concentration (EC50) lay within 800 to 2500 nM.
With `CCCCCCCc1ccc(-c2cnc(-c3ccc(C[C@H](NC(=O)c4ccc(C(C)(C)C)cc4)C(=O)N[C@H](C)C(=O)O)cc3)nc2)cc1` [Compound 724], the EC50 under setting [2] fell in the range of 800 to 2500 nM.
With `CCCCCCCOc1ccc(-c2cnc(-c3ccc(C[C@H](NC(=O)c4ccc(C(C)(C)C)cc4)C(=O)NC(C(=O)O)c4cccnc4)cc3)nc2)cc1` (stereo partly shown) [Compound 468], under setting [2], the EC50 was under 800 nM.
As to `CCCCCCCOc1ccc(-c2cnc(-c3ccc(C[C@H](NC(=O)c4ccc(C(C)(C)C)cc4)C(=O)NCC(CC4CCOCC4)C(=O)O)cc3)nc2)cc1` (stereo partly shown) [Compound 559], the EC50 under setting [2] fell in the range of 5000 to 10000 nM.
For `CCCC1CCN(C(=O)C(C)(C)CNc2cnc(-c3ccc(C[C@H](NC(=O)c4ccc(C(C)(C)C)s4)C(=O)N4CC(C(=O)O)C4)cc3)nc2)CC1` [Compound 1497], the EC50 under setting [1] was in the range of 2500 to 5000 nM.
`CCCCCCCOc1ccc(-c2cnc(-c3ccc(C[C@H](NC(=O)c4ccc(C(C)(C)C)s4)C(=O)N[C@H](C)C(=O)O)cc3)c(C)c2)cc1` [Compound 812]: the EC50 under setting [2] is 800 to 2500 nM.
As to `CCCCCCCOc1cc(C)c(-c2cnc(-c3ccc(C[C@H](NC(=O)c4ccc(C(C)(C)C)s4)C(=O)N[C@H](C)C(=O)O)cc3)nc2)c(C)c1` [Compound 791], the concentration giving a half-maximal response (EC50) under setting [2] lay within 800 to 2500 nM.
With `CC(C)Cc1ccc(-c2cnc(-c3ccc(C[C@H](NC(=O)c4ccc(C(C)(C)C)s4)C(=O)N[C@H](C)C(=O)O)cc3)nc2)cc1` [Compound 1021], the EC50 under setting [2] was 2500 to 5000 nM.
For `CCOc1ccc(-c2cnc(-c3ccc(C[C@H](NC(=O)c4ccc(C(C)(C)C)cc4)C(=O)N[C@H](C)C(=O)O)cc3)nc2)cc1` [Compound 721], the EC50 under setting [2] is 800 to 2500 nM.
Take `CCC[C@H]1CC[C@H](C2CCN(c3cnc(-c4ccc(C[C@H](NC(=O)c5ccc(C(C)(C)C)s5)C(=O)N5CC(C)(C(=O)O)C5)cc4)nc3)CC2)CC1` [Compound 1450]: the half-maximal effective concentration (EC50) under setting [1] is under 800 nM.
As to `CCC/C=C\CCOc1ccc(-c2cnc(-c3ccc(C[C@H](NC(=O)c4ccc(C(C)(C)C)cc4)C(=O)NCCC(=O)O)cc3)nc2)cc1` [Compound 715], the EC50 under setting [2] was in the range of 2500 to 5000 nM.
With `CCCCCCCOc1ccc(-c2cnc(-c3ccc(C[C@H](NC(=O)c4ccc(C(C)(C)C)s4)C(=O)N4C(C(=O)O)CCC4C(=O)O)cc3)nc2)cc1` (stereo partly shown) [Compound 614], under setting [2], the concentration for a half-maximal effect (EC50) was in the range of 800 to 2500 nM.
Turning to `CC(C)COc1cc(-c2cnc(-c3ccc(C[C@H](NC(=O)c4ccc(C(C)(C)C)s4)C(=O)N[C@H](C)C(=O)O)cc3)nc2)cc(Cl)c1F` [Compound 1011], the concentration giving a half-maximal response (EC50) under setting [2] lay in the range of 2500 to 5000 nM.
In the case of `CCCCCCCOc1ccc(-c2cnc(-c3ccc(C[C@H](NC(=O)c4ccc(CCC)cc4)C(=O)N[C@H](C)C(=O)O)cc3)nc2)cc1` [Compound 830], the EC50 under setting [2] was in the range of 5000 to 10000 nM.
Turning to `CCCCCCCOc1ccc(-c2cnc(-c3ccc(C[C@H](NC(=O)c4ccc(C(C)(C)C)s4)C(=O)N[C@@H](Cc4cccnc4)C(=O)O)cc3)nc2)cc1` [Compound 617], the EC50 under setting [2] is under 800 nM.
For `CC[C@H]1CC[C@H](c2ccc(-c3cnc(-c4ccc(C[C@H](NC(=O)c5ccc(CC(C)C)s5)C(=O)N5CC(C(=O)O)C5)cc4)nc3)cc2)CC1` [Compound 1152], the EC50 under setting [2] was under 800 nM.
On to `CCCCCCCOc1ccc(-c2cnc(-c3ccc(C[C@H](NC(=O)c4ccc(C(C)(C)C)cc4)C(=O)N[C@@H](CC(=O)NC4CC4)C(=O)O)cc3)nc2)cc1` [Compound 479], for which, under setting [2], the EC50 is under 800 nM.
For `CCC[C@H]1CC[C@H](c2ccc(-c3cnc(-c4ccc(C[C@H](NC(=O)c5ccc(C(C)(C)C)s5)C(=O)N[C@H](C)C(=O)O)cc4)nc3)cc2)CC1` [Compound 1265], the EC50 under setting [1] is under 800 nM.
For the compound `CCCCCCCOc1ccc(-c2cnc(-c3ccc(C[C@H](NC(=O)c4ccc(C(C)(C)C)cc4)C(=O)N[C@H](C(=O)O)[C@@H](C)CC)cc3)nc2)cc1` [Compound 449], under setting [2], the EC50 is 800 to 2500 nM.
As for `CCCCCCCOc1ccc(-c2cnc(-c3ccc(C[C@H](NC(=O)c4ccc(C(C)(C)C)s4)C(=O)NC(C(=O)O)C(O)C(F)(F)F)cc3)nc2)cc1` (stereo partly shown) [Compound 882], the EC50 under setting [2] lay within 800 to 2500 nM.
Regarding `CCC1CCC(C2CCN(c3cnc(-c4ccc(C[C@H](NC(=O)c5ccc(C(C)(C)C)s5)C(=O)N5CC(C(=O)O)C5)cc4)nc3)CC2)CC1` (stereo partly shown) [Compound 1429], the concentration giving a half-maximal response (EC50) under setting [1] is under 800 nM.
With `CC(C)(C)c1ccc(C(=O)N[C@@H](Cc2ccc(-c3ncc(-c4ccc(-c5ccccc5Cl)cc4F)cn3)cc2)C(=O)N2CC(C(=O)O)C2)s1` [Compound 1195], the half-maximal effective concentration (EC50) under setting [2] was under 800 nM.
As for `CC(C)(C)c1ccc(C(=O)N[C@@H](Cc2ccc(-c3ncc(N4CCC(C5CCCCC5)CC4)cn3)cc2)C(=O)N2CC(C(=O)O)C2)s1` [Compound 1431], the EC50 under setting [1] is under 800 nM.
`CCCCCCCOc1ccc(-c2cnc(-c3ccc(C[C@H](NC(=O)Cc4ccc(OCCCC)cc4)C(=O)N[C@H](C)C(=O)O)cc3)nc2)cc1` [Compound 979]: under setting [2], the EC50 was in the range of 2500 to 5000 nM.
As for `CCC[C@H]1CC[C@H](C2CCN(c3cnc(-c4ccc(CC(NC(=O)c5ccc(C(C)(C)C)s5)C(=O)NS(=O)(=O)CCN(C)C)cc4)nc3)CC2)CC1` (stereo partly shown) [Compound 1547], the EC50 under setting [1] is under 800 nM.
As for `CCCCCCCOc1ccc(-c2cnc(-c3ccc(C[C@H](NC(=O)c4ccc(C(C)C)s4)C(=O)N[C@H](C)C(=O)O)cc3)nc2)cc1` [Compound 841], the EC50 under setting [2] lay in the range of 800 to 2500 nM.
As for `CC[C@H]1CC[C@H](c2ccc(-c3cnc(-c4ccc(C[C@@H](NC(=O)c5ccc(C(C)(C)C)s5)C(=O)N[C@H](C)C(=O)O)cc4)nc3)cc2)CC1` [Compound 1269], under setting [1], the half-maximal effective concentration (EC50) was 5000 to 10000 nM.

The term EC50 denotes the midpoint of the concentration-response curve.
